Data reported in patent publication US6114334A, “Piperazine derivatives as therapeutic agents” (Knoll Aktiengesellschaft, priority 1995, dated 2000).
Structures can show the parent of a compound that is named as a salt.

Tests used:
[1] = biological target: T1, 5-HT1A receptors (Rattus norvegicus, UniProt P19327); experiment: inhibition of [3H]8-OH-DPAT binding to 5-HT1A receptors in vitro; parameters: species or system rat (male Sprague-Dawley, hippocampal tissue); conditions: rat hippocampus, [3H]8-OH-DPAT 2 nM, 25° C., 30 min
T1 sequence (P19327 1-422): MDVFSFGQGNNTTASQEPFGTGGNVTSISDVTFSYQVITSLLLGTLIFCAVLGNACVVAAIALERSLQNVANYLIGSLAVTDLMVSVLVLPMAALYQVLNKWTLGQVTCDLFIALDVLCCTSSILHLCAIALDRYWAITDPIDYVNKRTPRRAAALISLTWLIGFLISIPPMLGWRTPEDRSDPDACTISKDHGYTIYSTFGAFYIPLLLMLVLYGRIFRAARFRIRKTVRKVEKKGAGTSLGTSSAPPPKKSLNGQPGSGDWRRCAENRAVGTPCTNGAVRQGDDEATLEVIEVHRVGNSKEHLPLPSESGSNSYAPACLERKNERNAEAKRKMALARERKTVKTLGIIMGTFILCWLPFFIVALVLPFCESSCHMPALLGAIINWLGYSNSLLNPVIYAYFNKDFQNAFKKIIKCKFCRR
Experimental: Hippocampal tissue from the brains of male Sprague-Dawley rats (Charles River; weight range 150-250 g) was homogenised in ice-cold 50 mM Tris-HCl buffer (pH 7.7 when measured at 25° C., 1:40 w/v) and centrifuged at 30,000 g at 4° C. for 10 minutes. The pellet was rehomogenised in the same buffer, incubated at 37° C. for 10 minutes and centrifuged at 30,000 g at 4° C. for 10 minutes. The final pellet was resuspended in 50 mM Tris-HCl buffer (pH 7.7) containing 4 mM CaCl2. 0.1% L-ascorbic acid and 10 μM pargyline hydrochloride (equivalent to 6.25 mg wet weight of tissue/ml) and used immediately in the binding assay. Aliquots (400 μl; equivalent to 2.5 mg wet weight of tissue/tube) of this suspension were added to tubes containing the ligand (50 μl; 2 nM) and distilled water (50 μl; total binding) or 5-HT (50 μl; 10 μM; non-specific binding) or test compound (50 μl; at a single concentration of 10^-6 M or at 10 concentrations ranging from 10^-11 -10^-3 M). The ligand was [^3 H]8-hydroxy-2-(dipropylamino)tetralin ([^3 H]8-OH-DPAT) and the mixture was incubated at 25° C. for 30 minutes before the incubation was terminated by rapid filtration.

[2] = biological target: T2, α2A-adrenoceptors (Homo sapiens, UniProt P08913); experiment: inhibition of tritiated RX 821002 binding to α2A-adrenoceptors in vitro; parameters: species or system human (cerebral cortex post-mortem); conditions: human cerebral cortex; for Ki: [3H]RX 821002 0.2 nM, 0° C., 75 min; for inhibition at 1 µM: 10^-6 M, [3H]RX 821002, read-out: % displacement at 10^-6 M, α2A
T2 construct: Human cerebral cortex obtained at post-mortem; from tissue; host or cells: human cerebral cortex, post-mortem
T2 sequence (P08913 1-465): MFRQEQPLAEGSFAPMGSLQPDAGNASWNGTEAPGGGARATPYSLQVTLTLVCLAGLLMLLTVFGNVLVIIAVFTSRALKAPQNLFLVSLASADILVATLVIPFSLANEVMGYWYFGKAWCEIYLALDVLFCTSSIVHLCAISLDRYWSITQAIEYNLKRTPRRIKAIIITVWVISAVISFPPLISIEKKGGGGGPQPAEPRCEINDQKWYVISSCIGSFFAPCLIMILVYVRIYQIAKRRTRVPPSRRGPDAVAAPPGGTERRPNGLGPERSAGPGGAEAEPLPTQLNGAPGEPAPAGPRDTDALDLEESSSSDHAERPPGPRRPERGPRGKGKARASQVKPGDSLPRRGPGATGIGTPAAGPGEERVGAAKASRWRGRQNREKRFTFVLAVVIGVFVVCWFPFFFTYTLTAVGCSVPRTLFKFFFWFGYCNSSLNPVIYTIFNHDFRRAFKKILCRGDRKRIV
Experimental: Human cerebral cortex obtained at post-mortem was homogenised in ice-cold 0.25M sucrose (1:30 w/v) and centrifuged at 1,000 g at 4° C. for 12 minutes. The supernatant was stored on ice and the pellet was rehomogenised in 0.25M sucrose (1:15 w/v) and centrifuged at 850 g at 4° C. for 12 minutes. Combined supernatants were diluted with 5 mM Tris-HCl (pH 7.5) containing 5 mM ethylenediamine tetraacetic acid (EDTA), readjusted to pH 7.5 (at 25° C.) with 1M sodium hydroxide to 1:80 w/v, and centrifuged at 11,000 g at 4° C. for 10 minutes. The resulting pellet was resuspended in 50 mM Tris-HCl (pH 7.5) containing 5.68 mM L-ascorbic acid and 0.5 mM EDTA, readjusted to pH 7.5 (at 25° C.) with 1M sodium hydroxide to 1:80 w/v, and centrifuged at 11,000 g for 10 minutes. The pellet was stored at -80° C. On the day of the assay the pellet was thawed, resuspended in 50 mM Tris-HCl (pH 7.5) containing 5.68 mM L-ascorbic acid and 5 mM EDTA to 1:80 w/v and centrifuged at 11,000 g for 10 minutes. The final pellet was resuspended in 50 mM Tris-HCl (pH 7.5) containing 5.68 mM L-ascorbic acid and 5 mM EDTA (equivalent to 25 mg wet weight of tissue/ml).
Aliquots (400 μl; equivalent to 10 mg wet weight of tissue/tube) of this suspension were added to tubes containing the ligand (50 μl; 0.2 nM) and distilled water (50 μl; total binding) or phentolamine (50 μl; 50 μM; non-specific binding) or test compound (50 μl; at a single concentration of 10^-6 M or at 10 concentrations ranging from 10^-11 -10^-3 M). The ligand was tritiated RX 821002 (2-(2-methoxy-1,4-[6,7(n)-^3 H]benzodioxan-2-yl)-2-imidazoline) and the mixture was incubated at 0° C. for 75 minutes before the incubation was terminated by rapid filtration.
The filters were washed with ice-cold Tris-HCl buffer and dried. The filters were punched out into vials, scintillation fluid added and radioactivity determined by liquid scintillation counting. The percentage displacement of specific binding of the tritiated ligand was calculated for the single concentration (10^-6 M) of test compound. Displacement curves were then produced for those compounds which displaced ≥50% of specific binding of the tritiated ligand at 10^-6 M using a range of concentrations of the compound. The concentration which gave 50% inhibition of specific binding (IC50) was obtained from the curve. The inhibition coefficient Ki was then calculated using the formula [formula] in which [ligand] is the concentration of the tritiated ligand used and KD is the equilibrium dissociation constant for the ligand.

[3] = biological target: T3, α2D-adrenoceptors (Rattus norvegicus, UniProt P22909); experiment: inhibition of tritiated idazoxan binding to α2D-adrenoceptors in vitro; parameters: species or system rat (male Charles River CD, frontal cortical tissue); conditions: rat frontal cortex; for Ki: [3H]idazoxan 1 nM, 0° C., 75 min
T3 sequence (P22909 1-465): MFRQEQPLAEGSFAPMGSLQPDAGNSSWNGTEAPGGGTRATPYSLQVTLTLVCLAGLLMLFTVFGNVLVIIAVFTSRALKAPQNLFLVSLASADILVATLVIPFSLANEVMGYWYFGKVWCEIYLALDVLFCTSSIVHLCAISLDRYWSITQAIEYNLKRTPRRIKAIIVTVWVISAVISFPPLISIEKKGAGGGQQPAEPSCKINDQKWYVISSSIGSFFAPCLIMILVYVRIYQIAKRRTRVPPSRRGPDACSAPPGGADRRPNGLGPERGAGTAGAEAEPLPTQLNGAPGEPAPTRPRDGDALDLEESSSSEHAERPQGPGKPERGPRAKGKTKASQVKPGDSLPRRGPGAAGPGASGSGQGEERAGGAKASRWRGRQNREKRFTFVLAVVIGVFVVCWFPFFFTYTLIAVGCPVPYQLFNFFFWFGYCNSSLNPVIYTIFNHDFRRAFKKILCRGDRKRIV

[4] = biological target: α1-adrenoceptors; experiment: inhibition of 7-methoxy-[3H]prazosin binding to α1-adrenoceptors in vitro; parameters: species or system rat (male Charles River CD, whole cortical tissue); conditions: rat whole cortex, 30 min; for Ki: 7-methoxy-[3H]prazosin 0.1 nM, 30° C.
Experimental: Whole cortical tissue from the brains of male Charles River CD rats weighing between 150-250 g were homogenised in ice-cold 50 mM Tris-HCl, pH 7.6 (at 25° C.; 1:40 w/v) and centrifuged at 1000 g at 4° C. for 10 minutes. The supernatant was centrifuged at 30,000 g at 4° C. for 10 minutes. The pellet was rehomogenised in 50 mM Tris-HCl, pH 7.6 (1:40 w/v) and centrifuged at 30,000 g at 4° C. for 10 minutes. The final pellet was resuspended in 50 mM Tris-HCl, pH 7.6 (equivalent to 12.5 mg wet weight of tissue/ml) and used immediately in the binding assay. Aliquots (400 μl; equivalent to 5 mg wet weight of tissue/tube) of this suspension were added to tubes containing the ligand (50 μl; 0.1 nM) and distilled water (50 μl; total binding) or phentolamine (50 μl; 5 μM; non-specific binding) or test compound (50 μl; at a single concentration of 10^-6 M or at 10 concentrations ranging from 10^-11 -10^-3 M). The ligand was 7-methoxy-[^3 H]prazosin and the mixture was incubated at 30° C. for 30 minutes before the incubation was terminated by rapid filtration. The filters were washed with ice-cold Tris-HCl buffer and dried. The filters were punched out into vials, scintillation fluid added and radioactivity determined by liquid scintillation counting. The percentage displacement of specific binding of the tritiated ligand was calculated for the single concentration (10^-6 M) of test compound. […] The concentration which gave 50% inhibition of specific binding (IC50) was obtained from the curve. The inhibition coefficient Ki was then calculated using the formula [formula] in which [ligand] is the concentration of the tritiated ligand used and KD is the equilibrium dissociation constant for the ligand.

[5] = biological target: D2 dopamine receptors (Rattus norvegicus, UniProt P61169); experiment: inhibition of tritiated (S)-sulpiride binding to D2 dopamine receptors in vitro; parameters: species or system rat (male Charles River CD, striatal tissue); conditions: rat striatum, tritiated (S)-sulpiride 1 nM, 4° C., 40 min
D2 dopamine receptors, sequence (P61169 whole entry): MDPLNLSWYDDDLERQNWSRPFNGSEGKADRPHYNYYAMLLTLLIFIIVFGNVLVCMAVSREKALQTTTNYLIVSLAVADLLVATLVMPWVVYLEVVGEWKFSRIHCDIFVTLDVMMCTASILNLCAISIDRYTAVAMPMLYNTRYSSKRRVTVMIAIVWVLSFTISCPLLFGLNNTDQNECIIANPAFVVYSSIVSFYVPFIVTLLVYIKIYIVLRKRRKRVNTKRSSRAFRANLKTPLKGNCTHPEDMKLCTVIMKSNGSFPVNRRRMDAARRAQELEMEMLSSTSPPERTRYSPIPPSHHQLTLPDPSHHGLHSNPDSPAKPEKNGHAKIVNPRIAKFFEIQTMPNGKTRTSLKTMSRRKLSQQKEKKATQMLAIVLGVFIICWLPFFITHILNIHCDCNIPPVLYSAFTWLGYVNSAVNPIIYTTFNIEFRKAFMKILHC

Row | Compound | Ki [1] [nM] | Ki [2] [nM] | Ki [3] [nM] | Ki [4] [nM] | Ki [5] [nM] | inhibition at 1 µM [2] [%] | inhibition at 1 µM ([3]; 10^-6 M, [3H]idazoxan, read-out: % displacement at 10^-6 M, α2D) [%] | % displacement at 10^-6 M, α1 ([4]; 10^-6 M, 7-methoxy-[3H]prazosin, 1 µM) [%] | Ki ([4]; hydrochloride) [nM]
1 | Cn1c(N)c(CN2CCN(c3cccc4c3OCCO4)CC2)c(=O)n1-c1ccccc1 [Example 2, 3-amino-4-[4-(1,4-benzodioxan-5-yl)piperazin-1-ylmethyl]-2-methyl-1-phenyl-3-pyrazolin-5-one] | 26 | 29 | 307 | 401 | 196 |  |  |  | 
2 | Cc1ccccc1N1CCN(Cc2c(N)n(C)n(-c3ccccc3)c2=O)CC1 [Example 3, 3-Amino-2-methyl-4-[4-(2-methylphenyl)piperazin-1-ylmethyl]-1-phenyl-3-pyrazolin-5-one] | > 500 |  |  |  | > 500 | 98 | 56 | 89 | 
3 | Cn1c(N)c(CN2CCN(c3cccc4ccccc34)CC2)c(=O)n1-c1ccccc1 [Example 4, 3-Amino-2-methyl-4-[4-(1-naphthyl)piperazin-1-ylmethyl]-1-phenyl-3-pyrazolin-5-one] | 39 |  | > 500 | 186 | 112 | 82 |  |  | 
4 | CCCn1c(N)c(CN2CCN(c3cccc4c3OCCO4)CC2)c(=O)n1-c1ccccc1 [Example 5, 3-Amino-4-[4-(1,4-benzodioxan-5-yl)piperazin-1-ylmethyl]-1-phenyl-2-propyl-3-pyrazolin-5-one] | 16 |  | 121 | 41 | 176 | 73 |  |  | 
5 | C=CCn1c(N)c(CN2CCN(c3cccc4c3OCCO4)CC2)c(=O)n1-c1ccccc1 [Example 6, 2-Allyl-3-amino-4-[4-(1,4-benzodioxan-5-yl)piperazin-1-ylmethyl]-1-phenyl-3-pyrazolin-5-one] | 22 |  | 111 | 45 | 139 | 86 |  |  | 
6 | Cn1c(N)c(CN2CCN(c3cccc4ccoc34)CC2)c(=O)n1-c1ccccc1 [Example 7, 3-Amino-4-[4-(7-benzo[b]furanyl)piperazin-1-ylmethyl]-2-methyl-1-phenyl-3-pyrazolin-5-one] | 24 |  | 165 | 19 | 177 | 91 |  |  | 
7 | CC(C)Oc1ccccc1N1CCN(Cc2c(N)n(C)n(-c3ccccc3)c2=O)CC1 [Example 8, 3-Amino-4-[4-(2-isopropoxyphenyl)piperazin-1-ylmethyl]-2-methyl-1-phenyl-3-pyrazolin-5-one] | 106 |  | 21 | 12 | 22 | 100 |  |  | 
8 | Nc1c(CN2CCN(c3cccc4c3OCCO4)CC2)c(C2CC2)nn1-c1ccccc1 [Example 10, 5-amino-4-[4-(1,4-benzodioxan-5-yl)piperazin-1-ylmethyl]-3-cyclopropyl-1-phenylpyrazole] | 25 | 2 | 162 | 31 | 374 |  |  |  | 
9 | Nc1nn(-c2ccccc2)c(N)c1CN1CCN(c2cccc3c2OCCO3)CC1 [Example 11, 3,5-diamino-4-[4-(1,4-benzodioxan-5-yl)piperazin-1-ylmethyl]-1-phenylpyrazole] | 16 |  | 60 | > 500 | 309 | 85 |  |  | 
10 | Nc1c(CN2CCN(c3cccc4c3OCCO4)CC2)c(-c2ccccc2)nn1-c1ccccc1 [Example 12, 5-Amino-4-[4-(1,4-benzodioxan-5-yl)piperazin-1-ylmethyl]-1,3-diphenylpyrazole] | 19 |  | 192 | 41 | > 500 | 99 |  |  | 
11 | Cn1nc(C2CC2)c(CN2CCN(c3cccc4c3OCCO4)CC2)c1N [Example 18, 5-Amino-4-[4-(1,4-benzodioxan-5-yl)piperazin-1-ylmethyl]-3-cyclopropyl-1-methylpyrazole 2.3 hydrochloride] | 27 |  | 69 |  |  | 98 |  |  | 204
